The values below come from patent US20230365682A1, “COMBINATION THERAPY FOR TREATING COLORECTAL CANCER” (Gilead Sciences, Inc., priority 2022, published 2023).

“Also recorded” adds a separate entry of the source.

For data set [1] the following is noted: with 1 mg/kg priming dose, then repeated therapeutic doses; cited from earlier work.
A short description of data set [2]: Clinical safety of magrolimab. Conditions: human, in vivo. As for the experimental part: In the first-in-human study of magrolimab in patients with solid tumors and lymphomas, after an initial priming dose of 1 mg/kg on the first day, magrolimab was tested as a monotherapy at weekly doses of up to 45 mg/kg. The use of an initial 1 mg/kg priming dose was integrated into the dosing regimen to mitigate the on-target anemia induced by CD47 blockade. An initial priming dose leads to elimination of aged RBCs that are sensitive to CD47 blockade and triggers reticulocytosis of young RBCs that are not affected by CD47 blockade (Chen, et al., Blood (ASH Annual Meeting Abstracts) (2018) 132 (Suppl 1):2327). […] Based on PK-PD modeling, a maintenance dose of 30 mg/kg every 2 weeks is expected to provide more than 90% occupancy of the CD47 receptor in peripheral blood and tumor tissues and thus is expected to provide maximal efficacy while maintaining adequate safety. In solid tumors where the combination therapy is given according to 3-week cycles, dosing of magrolimab every 3 weeks optimizes patient and caregiver convenience. […]
Up to 6 other patients will then be enrolled and evaluated at a lower dose level in the same manner. • Once the RP2D is determined, the sponsor will open the Randomized Cohort.

The subject of data set [3] is colorectal cancer cells. Put plainly: Cell growth inhibition (Cell-titer Glo, ATP). Type of data set: cell-based. Conditions: 24, 48, and 72 hours of drug treatment; normalized to DMSO control. As for the experimental part:
Tumor cells were treated with titrations of irinotecan, oxaliplatin, or vehicle control and monitored for growth after 24, 48, and 72 hours of drug treatment. Cell growth was indirectly determined using a commercially available reagent (Promega, Cell-titer Glo®) which measures intracellular adenosine triphosphate (ATP) levels and directly correlates to the number of live cells. […] DMSO=dimethyl sulfoxide; Oxa=oxaliplatin; SN-38=irinotecan.

For data set [4], the system named is LS-174T or HCT-116 cells. Put plainly: In vitro phagocytosis of pretreated tumor cells by monocyte-derived macrophages. In kind it is cell-based. Conditions: 24 hours pretreatment; 2:1 target to effector ratio, 2 hours coculture. As for the experimental part: (§1) A. LS 174T cells were incubated with titrations of irinotecan for 24 hours, washed, and stained for CALR and PS. Flow cytometry was used to analyze and quantify the frequency of stained cells. The shaded areas indicate reported IC50 for each drug. B. LS-174T or HCT-116 cells were pretreated for 24 hours with irinotecan or oxaliplatin at the indicated concentration. The tumor cells were washed, CFSE labeled and cocultured with monocyte-derived macrophages at a 2:1 target to effector ratio for 2 hours. The phagocytic index, defined as the percentage of the macrophages that engulfed tumor cells out of total macrophages, was quantified using flow cytometry. 5F9, Magro=magrolimab; CALR=calreticulin; CFSE=carboxyfluorescein succinimidyl ester; hr=hour; IC50=half-maximal inhibitory concentration; MFI=median fluorescence intensity; PBS=phosphate buffered saline; PS=phosphatidyl serine; SN 38=irinotecan.

The subject of data set [5] is LS 174T cells. Put plainly: Flow cytometry of prophagocytic receptors (CALR, PS) after 24 hours of drug. Conditions: 24 hours incubation; CALR and PS staining. Type of data set: cell-based. As for the experimental part:
as §1
In general terms: Flow cytometry measures light scatter and fluorescence of single cells or particles in a stream.

In data set [6] the test system is mCRC. Conditions: cited from earlier work.
The mark [7] stands for this setting: continuation on bevacizumab versus standard chemotherapy alone.

Take “magrolimab: humanized anti-CD47 mAb (human IgG4) that blocks the interaction of CD47 with its receptor and enables phagocytosis of human cancer cells”: the anemia result in data set [1] was “initial, transient, and mild anemia that generally normalizes back to baseline over several weeks”. Besides, in data set [2], the dose-dependent toxicities entry was “no dose-dependent toxicities have been observed”.
`O=C1[O][Pt]2([NH][C@@H]3CCCC[C@H]3[NH]2)[O]C1=O` [oxaliplatin]: the growth inhibition result in data set [3] was “growth inhibition”.
Turning to `CCc1c2c(nc3ccc(OC(=O)N4CCC(N5CCCCC5)CC4)cc13)-c1cc3c(c(=O)n1C2)COC(=O)[C@]3(O)CC` [irinotecan], in data set [3], the growth inhibition entry was “growth inhibition; also recorded: more likely to undergo growth inhibition”. For the same compound, the “phagocytosis of colorectal cancer cells” value in data set [4] was “promotes the in vitro phagocytosis of colorectal cancer cells; also recorded: more effective than oxaliplatin”. The “cell surface expression of prophagocytic receptors” value in data set [5] is “upregulates the expression of prophagocytic receptors; also recorded: more effective than oxaliplatin”.
“bevacizumab: humanized monoclonal antibody targeting circulatory VEGF and preventing tumor angiogenesis”: the PFS in data set [6] (continuation on bevacizumab after progression on first-line chemotherapy, standard chemotherapy alone 4.1 months) is on record as 5.7 months. In addition, in data set [6] (continuation on bevacizumab after progression on first-line chemotherapy, standard chemotherapy alone 9.9 months), the OS is listed as 11.2 months. In data set [6] (setting [7]), the “OS HR” value is on record as 0.81 and the “PFS HR” value is listed as 0.68.
